Reference: patent US12162836B2, “N-acyl-{4-[(4-aryl-phenyl)sulfonylmethyl]piperidine} compounds and their therapeutic use” (Modern Biosciences Limited, priority 2019, dated 2024)
Values after ≈ are worked out from the molar mass of the structure shown.

Experiments:
[1] = system: collagen-induced arthritis in DBA/1j mice; assay: Mouse Collagen-Induced Arthritis; format: in vivo; details: 10 mg/kg/day, once daily for 14 days, oral gavage; arthritic index vs control
Method: Seven- to eight-week-old male DBA/1j mice were used for all procedures. Animals were housed in groups of 10, and were maintained at 21° C.±2° C. on a 12-hour light/dark cycle with food and water ad libitum. Complete Freund's adjuvant (CFA) was prepared by emulsifying bovine type II collagen at 4 mg/mL with a 4 mg/mL suspension of Mycobacterium tuberculosis H37Ra in Incomplete Freund's Adjuvant (IFA) (0.85 mL paraffin oil and 0.15 mL mannide monooleate) in a 1:1 (v/v) ratio. All mice were immunised subcutaneously with 200 μg of bovine type II collagen in CFA. 21 days later, all mice were immunised subcutaneously with 100 μg of bovine type II collagen in IFA. The mice started to develop signs and symptoms of arthritis following the ‘booster’ immunisation.
For macroscopic assessment of arthritis, the following signs were monitored in each paw of each mouse three times per week and summed to generate the Arthritic Index (A1) (the maximum A1 for one animal is 16): • 0=no visible effects of arthritis. • 1=oedema and/or erythema of 1 digit. • 2=oedema and/or erythema of 2 digits. • 3=oedema and/or erythema of more than 2 digits. • 4=severe arthritis of entire paw and digits.
Animals were sorted into treatment groups with a mean arthritic index of 2.5 and then dosed once daily for 14 days with compound: by oral gavage for test compounds, or by subcutaneous injection at a dose of 10 mg/kg for the positive control, etanercept. After completion of the experiment, the mice were sacrificed.
The data were analysed by generating an average of the arthritic index across each treatment group. The mean arthritic index was then compared to the arthritic index of control (untreated) animals using the following formula to generate a percentage inhibition of disease.

[2] = Aqueous solubility in FaSSIF; format: physicochemical; details: for solubility at 16 h: kinetic from dmso stock, pH 6.5, 16 hours, room temperature
Method: Aqueous solubility was measured by equilibration of compounds with fasted state simulated intestinal fluid (FaSSIF) and quantified spectrophotometrically.
Preparation of blank FaSSIF: 0.21 g of sodium hydroxide (NaOH) pellets, 1.97 g of dihydrogen sodium phosphate (NaH2PO4.2H2O) and 3.09 g of sodium chloride (NaCl) were dissolved in 400 mL of deionised water. The pH was adjusted to 6.5 using 1 M hydrochloric acid and further deionised water added to a final volume of 500 mL.
Preparation of FaSSIF: 0.056 g of SIF Powder (containing sodium taurocholate and lecithin) (Pharses A G) was dissolved in 25 mL of blank FaSSIF and stirred until the powder was completely dissolved. The solution was allowed to stand for 2 hours during which it became opalescent; it was used within 24 hours. The final solution composition was characterised as follows: • Sodium taurocholate: 3 mM • Lecithin: 0.75 mM • Osmolarity: 270±10 mOsmol • pH: 6.5
The optical density was measured at the end of the incubation period for test compounds and a reference used to determine solubility. In brief, two samples were prepared for each determination: a reference sample consisting of a stock solution of test compound in DMSO diluted in system solution (a phosphate free, low absorption buffer) and propanol; and a test sample (prepared in triplicate) consisting of 0.5 mL FaSSIF spiked with test compound at 0.2 mM. Each sample was incubated at room temperature for 16 hours with constant shaking at 250 rpm. At the end of the incubation period, 0.3 mL of each sample was filtered through a pION filter plate (PION, Woburn MA), diluted 1:1 with propanol and scanned using UV spectrophotometry at Amax ([…]) using a Spectra Max Plus—Version 2.1000 (Molecular Devices, Sunnyvale, CA), with pSOL Explorer solubility determination software (pION, Woburn, MA).
FaSSIF solubility was calculated using the following formula:
[formula] • wherein: • “OD” is the optical density; • “Cr” is the concentration of the reference (33.4 μM); and • “molecular weight” is for the test compound (e.g., 381.44 for ABD735).

[3] = system: Thp1 human monocytic cells; assay: Thp1 Monocyte ATP Production Assay (ATPlite); format: cell-based; details: Homo sapiens, THP-1, Thp1 cells, 24 hour incubation, mean of 2 independent experiments
Method: In vitro potency of test compounds was determined by incubation with Thp1 human monocytic cells and subsequent determination of Adenosine TriPhosphate (ATP) levels using firefly luciferase.
ATP is present in all metabolically active cells. When cells lose integrity, their ability to synthesise ATP is rapidly lost. […] See, e.g., Kang et al., 2015; Jiang et al., 2013. Levels of ATP can be monitored using a system based on firefly (Photinus pyralis) luciferase (see, e.g., Auld et al., 2009) using commercially available kits. A system known as ATPlite™ was using to measure effects of the test compounds on cellular viability in vitro. This one-step assay system is an adenosine triphosphate (ATP) monitoring system based on the production of light caused by the reaction of ATP from the cells with added luciferase and D-luciferin, as illustrated in the reaction scheme below:
Thp1 cells were plated at 112500 cells per well in 125 μL RPMI-1640 (no glucose) with 1% FBS in 96-well plates. Test compounds were prepared as 100 mM solutions in DMSO. These stock solutions were diluted in DMSO and then diluted 1000× in culture medium (RPMI) before being added directly to the wells so as to give the desired final compound concentration. After a 24 hour incubation at 37° C./5% CO2, ATPLite™ (Perkin Elmer) was added to each well (1:10 v/v, 10 μL). The plate was then incubated at room temperature for 5 minutes and the emitted light was quantified on Viewlux with a measurement time of 0.3 seconds and binning 4×4.
The average results for each test compound were expressed as a percent (%) of the average control value reflecting cell viability. The average values across the concentrations tested were then plotted and the IC50 for was calculated by fitting the data to a 4-parameter IC50 equation using software from Graf it (Erithacus Software). Each experiment was repeated twice and the data are presented as the mean IC50 from both experiments.

hERG ion channel = hERG ion channel (Homo sapiens (Human), UniProt Q12809); assay: hERG Ion Channel binding assay (3H astemizole displacement)
Method: (§1) The activity of the compounds against the hERG ion channel was tested using a binding assay in stably transfected Human Embryonic Kidney cells (hERG-HEK293). hERG-HEK293 cells were cultured in MEM medium (Invitrogen)+10% FBS, glutamine and non-essential amino acids at 37° C. To prepare membranes, cells were homogenised on ice, centrifuged at 650×g for 10 minutes at +4° C., and the resulting supernatant centrifuged at 48000×g for 10 minutes at +4° C. The pellet was resuspended in ice-cold 50 mM Tris-HCl buffer, 5 mM KCl (pH 8.5) and stored frozen in aliquots until use.
(§2) For binding assays, membranes were thawed, re-suspended in assay buffer (10 mM HEPES pH 7.4, 0.1% BSA, 5 mM potassium chloride, 0.8 mM magnesium chloride, 130 mM sodium chloride, 1 mM sodium-EGTA, 10 mM glucose) and incubated with ^3H astemizole (1.5 nM), and with or without test compound at 25° C. for 60 minutes. Binding was determined following filtration of the membranes and washing in Tris-HCl buffer by scintillation counting of ^3H astemizole.
(§3) The degree of binding of compounds to the hERG ion channel (%) was obtained by measuring the binding of ^3H astemizole and its displacement by test compound. A value of 0% indicates no binding and a value of 100% indicates complete displacement of the radiolabelled ligand.

hERG = hERG (Homo sapiens (Human), UniProt Q12809); assay: as above; details: human, membranes of HEK293 cells stably expressing hERG, pH 7.4, probe 3H astemizole (1.5 nM); 30 μM; displacement of 3H astemizole, hERG-HEK293 membranes
Method: as §1, §2, §3

human hepatocytes = assay: Human Hepatocyte Stability; format: in vitro ADME; details: human hepatocytes
Method: (§4) Metabolic stability of test compounds was measured by determination of the rate of disappearance of the compound when incubated in the presence of human hepatocytes, a primary source of the most important enzymes (cytochrome P450s) involved in drug metabolism. Study of drug stability in the presence of primary hepatocytes is accepted as a valuable model permitting rapid prediction of in vivo drug stability.
(§5) Human hepatocytes were obtained from a commercial source and viability was assessed using a trypan blue solution prior to use. Test compounds (final concentration 1 μM, 0.1 DMSO, 0.9% acetonitrile) or a marker (diclofenac or diltiazem, final assay concentration 1 μM, 0.1% DMSO, 0.9% acetonitrile) were incubated with pooled hepatocytes for a 60 minute period and samples removed at up to 6 time points and analysed by LC-MS/MS for the presence/amount of test compounds.
(§6) Each compound was incubated for 0, 5, 15, 30, 45, or 60 minutes. The reactions were stopped by the addition of methanol containing an internal standard (1 μM Tolbutamide) at the appropriate time points, mixed and placed at −20° C. for 1 hour to quench and allow protein to precipitate. All samples were centrifuged (2500× g, 20 minutes, 4° C.). The aliquots were analysed using LC-MS/MS. Reactions were performed in duplicate at 37° C.
(§7) Data were processed, and the results plotted as In(concentration) vs. time. The elimination rate constant (slope of the regression line, k) was calculated using the following formula, where C(t) is the concentration at time t and C(0) is the starting concentration:
(§8) The half-life (t1/2) was calculated using the following formula: […]
(§9) The intrinsic clearance (Clint) was calculated using the following formula, where [cell] is the hepatocyte concentration in the assay: […]

[4] = Human Hepatocyte Stability; format: in vitro ADME; details: pooled human hepatocytes, 1 μM, 60 minute incubation; for half-life at 1 μM: read-out: Human t1/2
Method: as §4, §5, §6, §7, §8, §9

hERG ion channel, sequence (Q12809 whole entry): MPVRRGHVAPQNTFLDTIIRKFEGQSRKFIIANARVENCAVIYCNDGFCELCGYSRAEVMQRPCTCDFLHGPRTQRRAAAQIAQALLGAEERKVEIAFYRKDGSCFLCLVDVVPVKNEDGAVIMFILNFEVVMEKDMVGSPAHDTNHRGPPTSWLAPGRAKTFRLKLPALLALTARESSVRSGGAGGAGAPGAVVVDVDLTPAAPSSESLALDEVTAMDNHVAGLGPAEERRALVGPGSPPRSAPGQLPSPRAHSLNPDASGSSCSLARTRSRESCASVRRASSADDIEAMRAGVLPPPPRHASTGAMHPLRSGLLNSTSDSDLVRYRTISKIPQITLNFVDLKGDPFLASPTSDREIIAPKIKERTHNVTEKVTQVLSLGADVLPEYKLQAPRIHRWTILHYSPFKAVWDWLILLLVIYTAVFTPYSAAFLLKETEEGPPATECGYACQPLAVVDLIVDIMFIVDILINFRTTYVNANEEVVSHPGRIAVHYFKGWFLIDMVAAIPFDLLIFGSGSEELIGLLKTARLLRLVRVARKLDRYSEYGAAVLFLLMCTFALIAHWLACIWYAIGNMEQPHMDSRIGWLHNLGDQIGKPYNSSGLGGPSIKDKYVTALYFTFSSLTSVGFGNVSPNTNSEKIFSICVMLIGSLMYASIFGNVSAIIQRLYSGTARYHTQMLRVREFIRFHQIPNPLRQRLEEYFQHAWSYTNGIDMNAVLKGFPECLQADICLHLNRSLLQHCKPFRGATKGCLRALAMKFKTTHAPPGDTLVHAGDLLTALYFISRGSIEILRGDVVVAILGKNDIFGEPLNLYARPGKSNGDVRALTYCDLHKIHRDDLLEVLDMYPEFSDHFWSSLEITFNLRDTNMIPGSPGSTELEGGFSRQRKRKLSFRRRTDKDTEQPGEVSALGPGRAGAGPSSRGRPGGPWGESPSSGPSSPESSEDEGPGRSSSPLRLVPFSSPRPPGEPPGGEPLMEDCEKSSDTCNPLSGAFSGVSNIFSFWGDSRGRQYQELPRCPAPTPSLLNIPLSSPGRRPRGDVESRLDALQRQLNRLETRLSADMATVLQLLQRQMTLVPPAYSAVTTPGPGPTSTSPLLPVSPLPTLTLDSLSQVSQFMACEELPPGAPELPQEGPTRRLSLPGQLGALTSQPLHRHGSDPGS
hERG, sequence (Q12809 whole entry): as above

Row | SMILES | % inhibition of disease [1] [%] | solubility at 16 h [2] [µg/mL] | IC50 ([3]; 8-point concentration range from 100 μM to 100 nM) [µM] | cardiac safety profile, hERG (in words) (hERG ion channel) | inhibition at 60 min, 30 µM (hERG) [%] | metabolic stability (in words) (human hepatocytes) | hepatocyte CLint at 1 μM [4] [µL/min/1e6 cells] | half-life at 1 μM [4] [h] | solubility (in words) [2] | IC50 ([3]; 9-point concentration range from 10 μM to 10 nM) [µM]
1 | C[C@]1(O)CC[C@@H](NS(=O)(=O)c2ccc(-c3ccc(Cl)cc3C#N)cc2)CC1 [HMC-C-01-B] | 26 | – | – | – | – | – | – | – | – | –
2 | CC(=O)N1CCC(C(C)(C)S(=O)(=O)c2ccc(-c3ccc(F)cc3F)cc2)CC1 [NASMP-18, 1-(4-(2-((2′,4′-Difluoro-[1,1′-biphenyl]-4-yl)sulfonyl)propan-2-yl)piperidin-1-yl)ethan-1-one] | – | 39 (≈ 92.5 µM) | 28.5 | particularly positive profile | 14 | exceptionally good stability | 3.8 | 5.87 | – | –
3 | CC(=O)N1CCC(C2(S(=O)(=O)c3ccc(-c4ccc(F)cc4F)cc3)CC2)CC1 [NASMP-21, 1-(4-(1-((2′,4′-Difluoro-[1,1′-biphenyl]-4-yl)sulfonyl)cyclopropyl)piperidin-1-yl)ethan-1-one] | – | 71 (≈ 169 µM) | – | particularly positive profile | 1 | – | 13.4 | 1.74 | particularly good solubility | 6.1
